Assay results published in PubChem BioAssay AID2060496 (Molecular Pharmacology Branch, DTP, NCI, 2025).
pIC50: −log10 of the molar value.

System: 276233-004-R-J1-PDC complex spheroid viability
Assay: Anticancer human tumor 276233-004-R-J1-PDC patient-derived colon adenocarcinoma cell line growth inhibition [GQUAD]
Settings: for pIC50: curve of first compound; for viability, T/C: stronger effect = lower value
Procedure, shortened: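 Multi-cell-type spheroids of tumor cells with HUVEC and mesenchymal stem cells, treated with drug combinations. Concentrations descend in half-log steps from near clinical Cmax, or from 10 microM where Cmax is unknown; viability read-out.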

[1] = second compound 0.0316 µM, first compound 0.0316 µM
[2] = second compound 0.0316 µM, first compound 0.1 µM
[3] = second compound 0.0316 µM, first compound 0.316 µM
[4] = second compound 0.0316 µM, first compound 1 µM
[5] = second compound 0.0316 µM, first compound 3.16 µM
[6] = second compound 0.0316 µM, first compound 10 µM
[7] = second compound 0.1 µM, first compound 0.0316 µM
[8] = second compound 0.1 µM, first compound 0.1 µM
[9] = second compound 0.1 µM, first compound 0.316 µM
[10] = second compound 0.1 µM, first compound 1 µM
[11] = second compound 0.1 µM, first compound 3.16 µM
[12] = second compound 0.1 µM, first compound 10 µM
[13] = second compound 0.316 µM, first compound 0.0316 µM
[14] = second compound 0.316 µM, first compound 0.1 µM
[15] = second compound 0.316 µM, first compound 0.316 µM
[16] = second compound 0.316 µM, first compound 1 µM
[17] = second compound 0.316 µM, first compound 3.16 µM
[18] = second compound 0.316 µM, first compound 10 µM
[19] = second compound 1 µM, first compound 0.0316 µM
[20] = second compound 1 µM, first compound 0.1 µM
[21] = second compound 1 µM, first compound 0.316 µM
[22] = second compound 1 µM, first compound 1 µM
[23] = second compound 1 µM, first compound 3.16 µM
[24] = second compound 1 µM, first compound 10 µM
[25] = second compound 3.16 µM, first compound 0.0316 µM
[26] = second compound 3.16 µM, first compound 0.1 µM
[27] = second compound 3.16 µM, first compound 0.316 µM
[28] = second compound 3.16 µM, first compound 1 µM
[29] = second compound 3.16 µM, first compound 3.16 µM
[30] = second compound 3.16 µM, first compound 10 µM
[31] = second compound 10 µM, first compound 0.0316 µM
[32] = second compound 10 µM, first compound 0.1 µM
[33] = second compound 10 µM, first compound 0.316 µM
[34] = second compound 10 µM, first compound 1 µM
[35] = second compound 10 µM, first compound 3.16 µM
[36] = second compound 10 µM, first compound 10 µM
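Further: spheroids exposed to drugs for seven days.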
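Wherever viability, T/C is given: 100% = DMSO vehicle control viability.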

With C#Cc1c(F)ccc2cc(O)cc(-c3ncc4c(N5CC6CCC(C5)N6)nc(OCC56CCCN5CC(F)C6)nc4c3F)c12 (stereo unspecified) + Cc1cnc(CNC(=O)c2c(=O)c3ccc(N4CCCN(C)CC4)nc3n3c2sc2ccccc23)cn1 as the molecule, how does the pIC50 (second compound 0.0316 µM) read?
The pIC50 was under 5.00.

What about the pIC50 (second compound 0.1 µM) of the same molecule?
Its pIC50 is under 5.00.

What about the pIC50 (second compound 0.316 µM) of the same molecule?
Its pIC50 is under 5.00.

And the pIC50 (second compound 1 µM)?
Its pIC50 is 5.15.

What about the pIC50 (second compound 3.16 µM) of the same molecule?
Its pIC50 is 5.81.

What about the pIC50 (second compound 10 µM) of the same molecule?
Its pIC50 is 5.84.

And the viability, T/C [1]?
Its viability, T/C is 115%.

What about the viability, T/C [2] of the same molecule?
The viability, T/C was 86.6%.

And the viability, T/C [3]?
The viability, T/C was 101%.

And the viability, T/C [4]?
The viability, T/C was 77.5%.

And the viability, T/C [5]?
Its viability, T/C is 83%.

What about the viability, T/C [6] of the same molecule?
Its viability, T/C is 57.8%.

What about the viability, T/C [7] of the same molecule?
The viability, T/C was 95.2%.

And the viability, T/C [8]?
Its viability, T/C is 77.7%.

What about the viability, T/C [9] of the same molecule?
Its viability, T/C is 75.3%.

What about the viability, T/C [10] of the same molecule?
Its viability, T/C is 75%.

And the viability, T/C [11]?
Its viability, T/C is 70.7%.

And the viability, T/C [12]?
The viability, T/C was 60.5%.

What about the viability, T/C [13] of the same molecule?
The viability, T/C was 84.1%.

And the viability, T/C [14]?
Its viability, T/C is 73%.

And the viability, T/C [15]?
The viability, T/C was 85.7%.

What about the viability, T/C [16] of the same molecule?
The viability, T/C was 80.8%.

And the viability, T/C [17]?
The viability, T/C was 69.5%.

And the viability, T/C [18]?
Its viability, T/C is 59.6%.

And the viability, T/C [19]?
Its viability, T/C is 84.2%.

And the viability, T/C [20]?
The viability, T/C was 71.4%.

And the viability, T/C [21]?
Its viability, T/C is 75.5%.

What about the viability, T/C [22] of the same molecule?
Its viability, T/C is 73%.

What about the viability, T/C [23] of the same molecule?
Its viability, T/C is 62.8%.

What about the viability, T/C [24] of the same molecule?
The viability, T/C was 44.4%.

What about the viability, T/C [25] of the same molecule?
Its viability, T/C is 65.2%.

What about the viability, T/C [26] of the same molecule?
The viability, T/C was 76.2%.

And the viability, T/C [27]?
Its viability, T/C is 66.9%.

What about the viability, T/C [28] of the same molecule?
Its viability, T/C is 53.8%.

And the viability, T/C [29]?
The viability, T/C was 44.5%.

What about the viability, T/C [30] of the same molecule?
Its viability, T/C is 41%.

What about the viability, T/C [31] of the same molecule?
Its viability, T/C is 64.1%.

What about the viability, T/C [32] of the same molecule?
Its viability, T/C is 73.5%.

And the viability, T/C [33]?
Its viability, T/C is 67.7%.

What about the viability, T/C [34] of the same molecule?
Its viability, T/C is 45.8%.

And the viability, T/C [35]?
The viability, T/C was 43.2%.

And the viability, T/C [36]?
Its viability, T/C is 5.43%.

With CC(=O)O[C@H]1C(=O)[C@@]2(C)[C@H]([C@H](OC(=O)c3ccccc3)[C@]3(O)C[C@H](OC(=O)[C@H](O)[C@@H](NC(=O)c4ccccc4)c4ccccc4)C(C)=C1C3(C)C)[C@]1(OC(C)=O)CO[C@@H]1C[C@@H]2O + Cc1cnc(CNC(=O)c2c(=O)c3ccc(N4CCCN(C)CC4)nc3n3c2sc2ccccc23)cn1 as the molecule, how does the pIC50 (second compound 0.0316 µM) read?
The pIC50 was under 5.00.

And the pIC50 (second compound 0.1 µM)?
Its pIC50 is under 5.00.

What about the pIC50 (second compound 0.316 µM) of the same molecule?
The pIC50 was under 5.00.

And the pIC50 (second compound 1 µM)?
The pIC50 was under 5.00.

And the pIC50 (second compound 3.16 µM)?
Its pIC50 is under 5.00.

And the pIC50 (second compound 10 µM)?
Its pIC50 is under 5.00.

And the viability, T/C [1]?
Its viability, T/C is 72.5%.

What about the viability, T/C [2] of the same molecule?
The viability, T/C was 80.5%.

What about the viability, T/C [3] of the same molecule?
Its viability, T/C is 90.3%.

What about the viability, T/C [4] of the same molecule?
The viability, T/C was 81.1%.

And the viability, T/C [5]?
The viability, T/C was 84.1%.

And the viability, T/C [6]?
The viability, T/C was 95.8%.

What about the viability, T/C [7] of the same molecule?
Its viability, T/C is 80.1%.

What about the viability, T/C [8] of the same molecule?
Its viability, T/C is 93.4%.

And the viability, T/C [9]?
The viability, T/C was 80.8%.

What about the viability, T/C [10] of the same molecule?
Its viability, T/C is 93.6%.

What about the viability, T/C [11] of the same molecule?
Its viability, T/C is 86.6%.

And the viability, T/C [12]?
The viability, T/C was 84.5%.

And the viability, T/C [13]?
The viability, T/C was 97.5%.

What about the viability, T/C [14] of the same molecule?
The viability, T/C was 94%.

And the viability, T/C [15]?
The viability, T/C was 89.9%.

And the viability, T/C [16]?
Its viability, T/C is 91%.

And the viability, T/C [17]?
The viability, T/C was 87.7%.

And the viability, T/C [18]?
Its viability, T/C is 95.6%.

And the viability, T/C [19]?
The viability, T/C was 76%.

What about the viability, T/C [20] of the same molecule?
Its viability, T/C is 84.8%.

What about the viability, T/C [21] of the same molecule?
Its viability, T/C is 88.6%.

What about the viability, T/C [22] of the same molecule?
The viability, T/C was 89.5%.

What about the viability, T/C [23] of the same molecule?
Its viability, T/C is 87%.

What about the viability, T/C [24] of the same molecule?
Its viability, T/C is 75.8%.

And the viability, T/C [25]?
The viability, T/C was 91.5%.

What about the viability, T/C [26] of the same molecule?
The viability, T/C was 72.9%.

What about the viability, T/C [27] of the same molecule?
Its viability, T/C is 80.8%.

What about the viability, T/C [28] of the same molecule?
Its viability, T/C is 71.1%.

And the viability, T/C [29]?
Its viability, T/C is 80.3%.

And the viability, T/C [30]?
Its viability, T/C is 83.8%.

What about the viability, T/C [31] of the same molecule?
The viability, T/C was 59.9%.

And the viability, T/C [32]?
The viability, T/C was 62.5%.

And the viability, T/C [33]?
Its viability, T/C is 64.9%.

What about the viability, T/C [34] of the same molecule?
Its viability, T/C is 53.8%.

And the viability, T/C [35]?
Its viability, T/C is 51.4%.

And the viability, T/C [36]?
The viability, T/C was 61.4%.

Which results are given for CC[C@@]1(O)C(=O)OCc2c1cc1n(c2=O)Cc2cc3c(CN(C)C)c(O)ccc3nc2-1 + Cc1cnc(CNC(=O)c2c(=O)c3ccc(N4CCCN(C)CC4)nc3n3c2sc2ccccc23)cn1?
pIC50 (second compound 0.0316 µM): < 6.50; pIC50 (second compound 0.1 µM): < 6.50; pIC50 (second compound 0.316 µM): < 6.50; pIC50 (second compound 1 µM): < 6.50; pIC50 (second compound 3.16 µM): < 6.50; pIC50 (second compound 10 µM): < 6.50; viability, T/C (second compound 0.0316 µM, first compound 0.000999 µM): 88.1%; viability, T/C (second compound 0.0316 µM, first compound 0.00316 µM): 94.5%; viability, T/C (second compound 0.0316 µM, first compound 0.00999 µM): 87.9%; viability, T/C [1]: 80%; viability, T/C (second compound 0.0316 µM, first compound 0.0999 µM): 98.7%; viability, T/C [3]: 82.5%; viability, T/C (second compound 0.1 µM, first compound 0.000999 µM): 93.3%; viability, T/C (second compound 0.1 µM, first compound 0.00316 µM): 101%; viability, T/C (second compound 0.1 µM, first compound 0.00999 µM): 107%; viability, T/C [7]: 83.7%; viability, T/C (second compound 0.1 µM, first compound 0.0999 µM): 87%; viability, T/C [9]: 76%; viability, T/C (second compound 0.316 µM, first compound 0.000999 µM): 83.9%; viability, T/C (second compound 0.316 µM, first compound 0.00316 µM): 90.8%; viability, T/C (second compound 0.316 µM, first compound 0.00999 µM): 106%; viability, T/C [13]: 84.4%; viability, T/C (second compound 0.316 µM, first compound 0.0999 µM): 87.7%; viability, T/C [15]: 92.7%; viability, T/C (second compound 1 µM, first compound 0.000999 µM): 81%; viability, T/C (second compound 1 µM, first compound 0.00316 µM): 93.9%; viability, T/C (second compound 1 µM, first compound 0.00999 µM): 87.1%; viability, T/C [19]: 80.5%; viability, T/C (second compound 1 µM, first compound 0.0999 µM): 88.2%; viability, T/C [21]: 107%; viability, T/C (second compound 3.16 µM, first compound 0.000999 µM): 81.9%; viability, T/C (second compound 3.16 µM, first compound 0.00316 µM): 84%; viability, T/C (second compound 3.16 µM, first compound 0.00999 µM): 80.6%; viability, T/C [25]: 87.2%; viability, T/C (second compound 3.16 µM, first compound 0.0999 µM): 82.3%; viability, T/C [27]: 80.8%; viability, T/C (second compound 10 µM, first compound 0.000999 µM): 73.2%; viability, T/C (second compound 10 µM, first compound 0.00316 µM): 67.9%; viability, T/C (second compound 10 µM, first compound 0.00999 µM): 70.2%; viability, T/C [31]: 83.6%; viability, T/C (second compound 10 µM, first compound 0.0999 µM): 70%; viability, T/C [33]: 89.6%
